Patent publication US7919468B2, “Compounds useful as modulators of the proteasome activity” (Centre National de la Recherche Scientifique (C.N.R.S.), priority 2005, dated 2011)
Peptide text beside a SMILES is read from it. * marks the point of attachment. Boc = CC(C)(C)OC(=O)*; NHBn = c1ccc(CN*)cc1; Bn = c1ccc(C*)cc1

Tests used:
Assay type in all cases: biochemical
[1] = molecular target: T1, rabbit 20S proteasome, post-acid (PA) activity (Oryctolagus cuniculus, UniProt A0A5F9DQW2); assay: Rabbit 20S proteasome fluorescent assay, post-acid activity (Z-LLE-βNA); conditions: pH 7.5, 30° C.; for PA % inhibition (at 100 μM): 100 μM compound
T1 construct: other: 100 μM compound, pH 7.5, 30° C; other: pH 7.5, 30° C
T1 sequence (A0A5F9DQW2 1-212): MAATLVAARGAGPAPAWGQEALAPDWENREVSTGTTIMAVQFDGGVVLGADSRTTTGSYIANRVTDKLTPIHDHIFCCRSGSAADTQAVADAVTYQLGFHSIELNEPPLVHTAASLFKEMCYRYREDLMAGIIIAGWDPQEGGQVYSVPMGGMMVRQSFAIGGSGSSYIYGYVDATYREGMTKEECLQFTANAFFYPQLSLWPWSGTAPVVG
Method: (§1) 20S proteasome from rabbit reticulocyte was from commercial source (Alexis Biochemicals)
(§2) Semi-automatic fluorescent assays using Suc-LLVY-amc (SEQ ID NO: 2) for chymotrypsin-like activity, Z-LLE-SNA for post-acid activity and Boc-LLR-amc for trypsin-like activity of proteasome were performed at pH 7.5 and 30° C. using BMG Fluostar microplate reader (Suc=succinyl; amc=7-amino-4-methylcoumarin; Z=benzyloxycarbonyl; NA=2-naphtylamine; Boc=tert-butoxycarbonyl). The buffers were: 20 mM Tris, 1 mM DTT, 10% glycerol, 3% (v/v) DMSO (ChT-L and PA activities); 20 mM Tris, 1 mM DTT, 10% glycerol, 3% (v/v) DMSO. Studied compounds were dissolved in DMSO prior dissolution in the buffer. Proteasome was incubated for 15 min at 30° C. in the presence of the studied compound (0.1-100 μM). A control assay in the absence of tested compounds contained DMSO at the same concentration (3%, v/v). The fluorogenic proteasome substrate was then added and the hydrolysis of the appropriate fluorescent substrate was monitored for 1 h (λexc=360, λem=465 nm for amc substrates and λexc=340, λem=405 nm for the βNA substrate). Initial rates determined in control experiments were considered to be 100% of the peptidasic activity; initial rates that were above 100% in the presence of a test compound were considered to be activations, while initial rates below 100% were considered to be inhibitions. For weak inhibitors, the percentage of inhibition at a reference concentration (100 μM) is reported. The results, expressed in % inhibition (or activation factor), were obtained by calculating the average of at least two independent experiments, the variability was less than 10%. The inhibitory activity of more efficient compounds are expressed as IC50 calculated by fitting the experimental data to the equation 1: % Inhibition=100 [I]0/(IC50+[I]0)=100 (v0−vi/v0), or equation 2: % Inhibition=100 [I]0^nH/(IC50^nH+[I]0^nH), nH is the Hill number. v0 and vi are the initial rates in the absence and in the presence of inhibitor. A Dixon plot has been used to determine the inhibition constant Ki for competitive inhibition by compound A215. The reversible character of inhibition or activation was determined by measuring the activity of treated enzyme after the inhibitor molecule has been withdrawn from the reaction medium.
(§3) Inhibition of Rabbit 20 S Proteasome (pH=7.5, 30° C.)
(§4) Activation of Rabbit 20 S Proteasome (pH=7.5, 30° C., [Compound]=100 μM)

[2] = tested on: rabbit 20S proteasome, trypsin-like (T-L) activity; assay: Rabbit 20S proteasome fluorescent assay, trypsin-like activity (Boc-LLR-amc); conditions: [Compound]=100 μM, pH 7.5, 30° C.
Method: as §1, §2, §3, §4

[3] = molecular target: T2, rabbit 20S proteasome, chymotrypsin-like (CT-L) activity (Oryctolagus cuniculus, UniProt G1T4Q9); assay: Rabbit 20S proteasome fluorescent assay, chymotrypsin-like activity (Suc-LLVY-amc); conditions: pH 7.5, 30° C.; for inhibition at 100 µM: 100 μM compound
T2 construct: other: 100 μM compound, pH 7.5, 30° C; other: pH 7.5, 30° C; CT-L Ki
T2 sequence (G1T4Q9 1-263): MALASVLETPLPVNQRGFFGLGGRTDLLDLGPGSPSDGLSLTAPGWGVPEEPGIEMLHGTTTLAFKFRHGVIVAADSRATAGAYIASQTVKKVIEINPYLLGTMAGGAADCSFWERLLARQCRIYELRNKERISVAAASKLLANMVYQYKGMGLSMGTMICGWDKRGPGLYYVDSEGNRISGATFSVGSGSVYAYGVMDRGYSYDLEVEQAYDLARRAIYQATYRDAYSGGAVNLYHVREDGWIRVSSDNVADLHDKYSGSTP
Method: as §1, §2, §3, §4

SMILES: CC(C)C[C@H](NC(=O)[C@H](Cc1ccc(OCc2ccccc2)cc1)NC(=O)OC(C)(C)C)C(=O)N[C@@H](Cc1c[nH]c2ccccc12)C(=O)Nc1ccc(O)cc1 [A418P, N-Boc-Tyr(Bn)-Leu-Trp-NH(4-OH)Ph]
- PA % inhibition (at 100 μM) [1]: 32%
- T-L Activation factor [2]: 1.6

SMILES: COC(=O)[C@H](CC1C(=O)Nc2ccccc21)NC(=O)CNC(=O)[C@H](Cc1ccc(OCc2ccccc2)cc1)NC(=O)OC(C)(C)C (some centres unmarked) [NR38, Boc-Tyr(Bn)-Gly-Trp[O]—OCH3]
- IC50 [3]: 13.5 µM
- PA % inhibition (at 100 μM) [1]: 81%
- T-L Activation factor [2]: 9.8

SMILES: CNC(=O)[C@H](Cc1c[nH]c2c(Br)cccc12)NC(=O)[C@H](C)NC(=O)[C@H](Cc1ccc(OCc2ccccc2)c(I)c1)NC(=O)OC(C)(C)C [A254, N-Boc-3-iodo-Tyr(Bn)-Ala-7-bromo-Trp-NHMe]
- inhibition at 100 µM [3]: 38%
- PA % inhibition (at 100 μM) [1]: 60%

SMILES: COC(=O)[C@H](Cc1c[nH]c2c(Br)cccc12)NC(=O)CCNC(=O)C(Cc1ccc(OC)c(I)c1)NC(=O)OC(C)(C)C (some centres unmarked) [A493, N-Boc-3-iodo-Tyr(Me)-βAla-7-bromo-Trp-OMe]
- inhibition at 100 µM [3]: 29%
- PA % inhibition (at 100 μM) [1]: 40%
- T-L Activation factor [2]: 8.2

SMILES: COC(=O)[C@H](Cc1c[nH]c2c(Br)cccc12)NC(=O)[C@H](CC(C)C)NC(=O)[C@H](Cc1ccc(OCc2ccccc2)c(I)c1)NC(=O)OC(C)(C)C [A268, N-Boc-3-iodo-Tyr(Bn)-Leu-7-bromo-Trp-OMe]
- T-L Activation factor [2]: 2

SMILES: CC(C)(C)OC(=O)N[C@@H](Cc1ccc(OCc2ccccc2)cc1)C(=O)N[C@@H](CC(N)=O)C(=O)N[C@@H](Cc1c[nH]c2ccccc12)C(=O)Nc1ccc(O)cc1 [SP318C, N-Boc-Tyr(Bn)-Asn-Trp-NH(4-OH)Ph]
- inhibition at 100 µM [3]: 15%
- PA % inhibition (at 100 μM) [1]: 66%
- T-L Activation factor [2]: 1.2

SMILES: COC(=O)[C@H](Cc1c[nH]c2c(Br)cccc12)NC(=O)[C@H](CC(N)=O)NC(=O)[C@H](Cc1ccc(OCc2ccccc2)c(I)c1)NC(=O)OC(C)(C)C [SP274, N-Boc-3-iodo-Tyr(Bn)-Asn-7-bromo-Trp-OMe]
- inhibition at 100 µM [3]: 62%
- PA % inhibition (at 100 μM) [1]: 45%

SMILES: CC(C)(C)OC(=O)NCCC[C@H](NC(=O)[C@H](Cc1ccc(OCc2ccccc2)cc1)NC(=O)OC(C)(C)C)C(=O)N[C@@H](CC1C(=O)Nc2ccccc21)C(=O)Nc1ccccc1 (some centres unmarked) [CV12, Boc-Tyr(Bn)-Lys(Boc)-Trp[O]—NHPh]
- IC50 [1]: 10.4 µM
- T-L Activation factor [2]: 1.5

SMILES: CC(C)C[C@H](NC(=O)[C@H](Cc1ccc(OCc2ccccc2)cc1)NC(=O)OC(C)(C)C)C(=O)N[C@@H](Cc1c[nH]c2ccccc12)C(=O)NCCCCNC(=O)OC(C)(C)C [SP296P, N-Boc-Tyr(Bn)-Leu-Trp-NH(CH2)4NHBoc]
- inhibition at 100 µM [3]: 22%
- PA % inhibition (at 100 μM) [1]: 59%
- T-L Activation factor [2]: 2.3

SMILES: C[C@H](NC(=O)[C@H](Cc1ccc(OCc2ccccc2)cc1)NC(=O)OC(C)(C)C)C(=O)N[C@@H](Cc1c[nH]c2ccccc12)C(=O)Nc1ccc(O)cc1 [SP313P, N-Boc-Tyr(Bn)-Ala-Trp-NH(4-OH)Ph]
- inhibition at 100 µM [3]: 26%
- IC50 [1]: 4 µM

SMILES: CC(C)(C)OC(=O)N[C@@H](Cc1ccc(OCc2ccccc2)cc1)C(=O)N[C@@H](CCCN(C(=N)NC(=O)OCc1ccccc1)C(=O)OCc1ccccc1)C(=O)N[C@@H](CC1C(=O)Nc2ccccc21)C(=O)NCc1ccccc1 (some centres unmarked) [NR16, Boc-Tyr(Bn)-Arg(Z)-2-Trp[O]—NHCH2Ph]
- inhibition at 100 µM [3]: 12%
- T-L Activation factor [2]: 8.2

SMILES: CC(C)(C)OC(=O)N[C@@H](Cc1ccc(OCc2ccccc2)cc1)C(=O)N[C@@H](CC(N)=O)C(=O)N[C@@H](Cc1c[nH]c2ccccc12)C(=O)NCc1ccccc1 [A416, N-Boc-Tyr(Bn)-Asn-Trp-NHCH2Ph] (Boc-Tyr(Bn)-Asn-Trp-NHBn)
- inhibition at 100 µM [3]: 28%
- PA % inhibition (at 100 μM) [1]: 35%
- T-L Activation factor [2]: 2.2

SMILES: C[C@H](NC(=O)[C@H](Cc1ccc(OCc2ccccc2)cc1)NC(=O)OC(C)(C)C)C(=O)N[C@@H](Cc1c[nH]c2ccccc12)C(=O)NCc1ccccc1 [SP304R, N-Boc-Tyr(Bn)-Ala-Trp-NHCCH2Ph] (Boc-Tyr(Bn)-Ala-Trp-NHBn)
- PA % inhibition (at 100 μM) [1]: 45%
- T-L Activation factor [2]: 1.7

SMILES: CC(C)(C)OC(=O)N[C@@H](Cc1ccc(OCc2ccccc2)cc1)C(=O)NCC(=O)N[C@@H](Cc1c[nH]c2ccccc12)C(=O)O [NR35, N-Boc-Tyr(Bn)-Gly-Trp-OH] (Boc-Tyr(Bn)-Gly-Trp-OH)
- T-L Activation factor [2]: 1.8

SMILES: C[C@H](NC(=O)[C@H](Cc1ccc(OCc2ccccc2)cc1)NC(=O)OC(C)(C)C)C(=O)N[C@@H](CC1C(=O)Nc2ccccc21)C(=O)Nc1ccccc1 (some centres unmarked) [CV13, Boc-Tyr(Bn)-Ala-Trp[O]—NHPh]
- inhibition at 100 µM [3]: 32%
- IC50 [1]: 3.9 µM

SMILES: CC(C)(C)OC(=O)N[C@@H](Cc1ccc(OCc2ccccc2)cc1)C(=O)N[C@@H](CCCN(C(=N)NC(=O)OCc1ccccc1)C(=O)OCc1ccccc1)C(=O)N[C@@H](CC1C(=O)Nc2ccccc21)C(=O)Nc1ccccc1 (some centres unmarked) [CV11, Boc-Tyr(Bn)-Arg(Z)-2-Trp[O]—NHPh]
- T-L Activation factor [2]: 1.7

SMILES: CC(C)(C)OC(=O)N[C@@H](Cc1ccc(OCc2ccccc2)cc1)C(=O)NCC(=O)N[C@@H](CC1C(=O)Nc2ccccc21)C(=O)NCc1ccccc1 (some centres unmarked) [NR15, Boc-Tyr(Bn)-Gly-Trp[O]—NHCH2Ph]
- IC50 [3]: 2.2 µM
- PA % inhibition (at 100 μM) [1]: 87%
- T-L Activation factor [2]: 12.3

SMILES: CCOC(=O)[C@H](Cc1c[nH]c2c(Br)cccc12)NC(=O)[C@H](CC(C)C)NC(=O)[C@H](Cc1ccc(OC)c(I)c1)NC(=O)OC(C)(C)C [A340, N-Boc-3-iodo-Tyr(Me)-Leu-7-bromo-Trp-OEt]
- PA % inhibition (at 100 μM) [1]: 17%

SMILES: COC(=O)[C@H](Cc1c[nH]c2c(Br)cccc12)NC(=O)[C@H](C)NC(=O)[C@H](Cc1ccc(OCc2ccccc2)c(I)c1)NC(=O)OC(C)(C)C [A248, N-Boc-3-iodo-Tyr(Bn)-Ala-7-bromo-Trp-OMe]
- PA % inhibition (at 100 μM) [1]: 32%

SMILES: COC(=O)[C@H](Cc1c[nH]c2ccccc12)NC(=O)[C@H](C)NC(=O)[C@H](Cc1ccc(OCc2ccccc2)cc1)NC(=O)OC(C)(C)C [NR36, N-Boc-Tyr(Bn)-Ala-Trp-OCH3] (Boc-Tyr(Bn)-Ala-Trp-OMe)
- inhibition at 100 µM [3]: 34%
- PA % inhibition (at 100 μM) [1]: 39%
- T-L Activation factor [2]: 9.8

SMILES: CCOC(=O)[C@H](Cc1c[nH]c2c(-c3cc(C[C@H](NC(=O)OC(C)(C)C)C(=O)N[C@@H](CC(C)C)C(=O)OC)ccc3OCc3ccccc3)cccc12)NC(=O)OCc1ccccc1 [SP221]
- T-L Activation factor [2]: 1.4

SMILES: COC(=O)[C@H](Cc1c[nH]c2c(Br)cccc12)NC(=O)[C@H](C)NC(=O)[C@H](Cc1ccc(OC)c(I)c1)NC(=O)OC(C)(C)C [A385, N-Boc-3-iodo-Tyr(Me)-Ala-7-bromo-Trp-OMe]
- inhibition at 100 µM [3]: 28%
- PA % inhibition (at 100 μM) [1]: 38%

SMILES: COC(=O)[C@H](Cc1c[nH]c2c(Br)cccc12)NC(=O)[C@H](CC(C)C)NC(=O)[C@H](Cc1ccc(OC)c(I)c1)NC(=O)OC(C)(C)C [A363, N-Boc-3-iodo-Tyr(Me)-Leu-7-bromo-Trp-OMe]
- PA % inhibition (at 100 μM) [1]: 20%
- T-L Activation factor [2]: 1.9
